Data on two molecules can be found in patent US10435385B2, “Amide derivatives, process for preparation thereof and use thereof as insecticide” (MITSUI CHEMICALS, INC., priority 2004, dated 2019).

Assay [1] concerns common cutworm (Spodoptera litura). Kind of assay: Insecticidal testing against common cutworm (cabbage leaf dip, second-stage larvae). In kind it is in vivo. Conditions: comparative test, procedure and conditions of Experimental Example 1. How it is done:
Insecticidal Testing Against Common Cutworm (Spodoptera litura) Cabbage leaves were immersed in a liquid comprising the testing compound to a predetermined concentration for 30 seconds and air-dried. They were placed in a 7-cm polyethylene cup, and the second-stage larvae of common cutworm were left therein. The cup was placed in a constant-temperature room at 25° C., and the survival rate was investigated after 3 days. The test was carried out with two groups of 5 larvae per group. As a result, Compound No. (to be described later)

Assay [2] relates to diamondback moth (Plutella xylostella). In words: Insecticidal testing against diamondback moth (cabbage leaf dip, second-stage larvae). Conditions: comparative test, procedure and conditions of Experimental Example 2. The class given is in vivo. Here is the method:
Insecticidal Testing Against Diamondback Moth (Plutella xylostella) Cabbage leaves were immersed in a liquid comprising the testing compound to a predetermined concentration for 30 seconds and air-dried. They were placed in a 7-cm polyethylene cup, and the second-stage larvae of diamondback moth were left therein. The cup was placed in a constant-temperature room at 25° C., and the survival rate was investigated after 3 days. The test was carried out with two groups of 5 larvae per group. As a result, Compound No. (to be described later)

As to `Cc1cc(C(F)(F)F)cc(C)c1NC(=O)c1cccc(NC(=O)c2ccccc2)c1` [Compound B, N-(2,6-dimethyl-4-trifluoromethyl)phenyl 3-(benzoylamino)benzamide], the insecticidal activity result in assay [1] and in assay [2] was “not observed” each time.

Regarding `Cc1cc(C(F)(C(F)(F)F)C(F)(F)F)ccc1NC(=O)c1cccc(NC(=O)c2ccccc2I)c1` [Compound A, N-(4-heptafluoroisopropyl-2-methyl)phenyl 3-(2-iodobenzoylamino)benzamide], the insecticidal activity entry in assay [1] and in assay [2] was “not observed” in each case.
